Measured values published in the supplement of paper PMC8617591.

Assays:
[1] = system: Mycobacterium tuberculosis Erdman (autoluminescent); assay: total FIC90 (Loewe) at 90% inhibition, three-drug combination (log2); higher = more antagonistic
Experimental: (§1)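 DiaMOND equipotent three-drug combination dose responses (10 doses, 1.5- or 2-fold spacing, centred on IC90) against autoluminescent M. tuberculosis Erdman in 8 in vitro models. Read-out is OD600, or luminescence for the intracellular and dormancy models, normalised to untreated wells. Hill-fit Einf, AUC25 and GRinf are potency metrics; FIC50 and FIC90 are total Loewe fractional inhibitory concentrations as log2 (negative = synergy).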

[2] = system: Mycobacterium tuberculosis Erdman (autoluminescent); assay: Einf, fitted maximum growth inhibition of three-drug combination (fraction); higher = stronger maximal inhibition
Experimental: as §1

[3] = system: Mycobacterium tuberculosis Erdman (autoluminescent); assay: GRinf, maximum normalised growth rate inhibition (three-drug combination) (unitless (-1 to 1)); higher = less effect (negative = killing)
Experimental: as §1

[4] = system: Mycobacterium tuberculosis Erdman (autoluminescent); assay: AUC25, normalised area under dose response up to IC25 (three-drug combination) (fraction (0-1)); higher = more potent at low dose
Experimental: as §1

[5] = system: Mycobacterium tuberculosis Erdman (autoluminescent); assay: total FIC50 (Loewe) at 50% inhibition, three-drug combination (log2); higher = more antagonistic
Experimental: as §1

COc1nc2ccc(Br)cc2cc1[C@@H](c1ccccc1)[C@@](O)(CCN(C)C)c1cccc2ccccc12 [bedaquiline] + CC(=O)NC[C@H]1CN(c2ccc(N3CCOCC3)c(F)c2)C(=O)O1 [linezolid] + CO[C@H]1/C=C/O[C@@]2(C)Oc3c(C)c(O)c4c(O)c(c(/C=N/N5CCN(C6CCCC6)CC5)c(O)c4c3C2=O)NC(=O)/C(C)=C\C=C\[C@H](C)[C@H](O)[C@@H](C)[C@@H](O)[C@@H](C)[C@H](OC(C)=O)[C@@H]1C [rifapentine]
Conditions	AUC25, [4]	Einf, [2]	GRinf, [3]	total FIC50, [5]	total FIC90, [1]
in vitro model: acidic pH 5.7, time point: constant (~7 days, model-specific)	0.108	0.926	-0.244	0.654	–
in vitro model: acidic pH 5.7, time point: terminal (~4-5 doublings, model-specific)	0.0848	0.986	-0.26	0.615	0.662
in vitro model: intracellular J774, time point: constant = terminal	–	0.933	-0.098	–	-0.0532

Conditions	AUC25, [4]	Einf, [2]	GRinf, [3]	total FIC50, [5]	total FIC90, [1]
in vitro model: butyrate, time point: constant (~7 days, model-specific)	0.0812	0.921	-0.0254	0.437	-0.119
in vitro model: butyrate, time point: terminal (~4-5 doublings, model-specific)	0.0511	0.948	-0.00583	0.274	-0.145
in vitro model: cholesterol 0.05 mM, time point: constant (~7 days, model-specific)	0.127	0.761	-0.281	-0.0889	–
in vitro model: cholesterol 0.05 mM, time point: terminal (~4-5 doublings, model-specific)	0.121	0.93	-0.354	0.0726	0.0812
in vitro model: cholesterol-high 0.2 mM, time point: constant (~7 days, model-specific)	0.0873	0.998	-0.89	0.58	1.04
in vitro model: cholesterol-high 0.2 mM, time point: terminal (~4-5 doublings, model-specific)	0.1	1	-0.637	0.404	0.653
in vitro model: dormancy (butyrate + nitrate, low O2), time point: constant (~7 days, model-specific)	0.0901	0.933	0.0917	0.915	1.57
in vitro model: dormancy (butyrate + nitrate, low O2), time point: terminal (~4-5 doublings, model-specific)	0.0384	0.985	-0.095	0.965	0.698
in vitro model: standard 7H9 glycerol, time point: constant = terminal	0.0734	0.939	-0.014	0.253	0.00862
in vitro model: valerate, time point: constant (~7 days, model-specific)	0.0755	0.899	-0.197	0.659	–
in vitro model: valerate, time point: terminal (~4-5 doublings, model-specific)	0.0423	0.945	-0.0248	0.581	0.338
